From ChEMBL document CHEMBL6103579, “Antiproliferative activity of selenium-enriched coumarin derivatives on the SK-N-SH neuroblastoma cell line: Mechanistic insights” (Eur J Med Chem, 2025)

Experiments:
[1] = Toxicity in female ICR mouse assessed as change in organ coefficient of heart at 20 mg/kg, ip […] (reference value: 0.006+/-0.002); type: organism-based; details: in vivo
[2] = Toxicity in female ICR mouse assessed as change in organ coefficient of spleen at 20 mg/kg, ip […] (reference value: 0.006+/-0.002); type: organism-based; details: in vivo
[3] = Toxicity in female ICR mouse assessed as change in organ coefficient of liver at 20 mg/kg, ip […] (reference value: 0.058+/-0.010); type: organism-based; details: in vivo
[4] = Toxicity in female ICR mouse assessed as change in organ coefficient of lung at 20 mg/kg, ip […] (reference value: 0.007+/-0.001); type: organism-based; details: in vivo
[5] = test system: N2a; test: Antitumor activity against mouse N2a cells implanted in female ICR mouse model assessed as tumor inhibition rate at 20 mg/kg, ip measured upto 8 days relative to control; type: functional; set-up: scale not given: the % may be the effect or the level left; details: time <= 8 day
[6] = Toxicity in female ICR mouse assessed as change in organ coefficient of kidney at 20 mg/kg, ip […] (reference value: 0.007); type: organism-based; details: in vivo
[7] = test system: N2a; test: Antitumor activity against mouse N2a cells implanted in female ICR mouse model assessed as change in body weight at 20 mg/kg, ip measured upto 8 days (reference value: 25.54 +/-2.19 g); type: functional; details: time <= 8 day
[8] = test system: N2a; test: Antitumor activity against mouse N2a cells implanted in female ICR mouse model assessed as reduction in tumor weight at 20 mg/kg, ip measured upto 8 days (reference value: 0.9 +/-0.26 g); type: functional; details: time <= 8 day

O=P1(N(CCCl)CCCl)NCCCO1 (stereo not drawn) [CYCLOPHOSPHAMIDE ANHYDROUS]
Activity [1]: 0.006 | Activity [2]: 0.004 | Activity [3]: 0.059 | Activity [4]: 0.007 | Activity [5]: 64.6% | Activity [6]: 0.007 | Activity [7]: 27.2 g | Activity [8]: 0.32 g
